The results in this text go back to ChEMBL document CHEMBL1151293, “End-Product Regulation of Ergot Alkaloid Formation in Intact Cells and Protoplasts of Claviceps Species, Strain SD 58” (1980).

Assay [1] concerns Claviceps. Briefly: Inhibition of DMAT synthase in Claviceps SD 58 assessed as conversion of 1-14C]dimethylallylpyrophosphate to dimethylallyltryptophan at 3 mM after 5 days. Set-up: scale not given: the % may be the effect or the level left.
The subject of assay [2] is Claviceps. Briefly: Inhibition of alkaloid biosynthesis in intact cells of Claviceps SD 58 assessed as incorporation of L-[methylene-14C] tryptophan at 3 mM after 24 hrs relative to control. The assay is classed as functional.
The subject of assay [3] is Claviceps. Kind of assay: Inhibition of alkaloid biosynthesis in Claviceps SD 58 protoplast assessed as incorporation of L-[methylene-14C] tryptophan at 4 mM relative to control. The arrangement: scale not given: the % may be the effect or the level left. The assay is classed as functional.
Assay [4] deals with Claviceps. Briefly: Inhibition of alkaloid biosynthesis in intact cells of Claviceps SD 58 assessed as incorporation of L-[methylene-14C] tryptophan at 3 mM. The class given is functional.

For `CN1CC(CO)=C[C@@H]2c3cccc4[nH]cc(c34)C[C@H]21` [listing 1 of 3 here], in the assay with Claviceps [1], the Activity is 70%.
With `CN1CC(CO)=C[C@@H]2c3cccc4[nH]cc(c34)C[C@H]21` [listing 2 of 3 here], the “fold change (FC)” value in the assay on Claviceps [2] came to 2. Besides, the Activity in the assay on Claviceps [3] was determined as 50%.
For the compound `CN1CC(CO)=C[C@@H]2c3cccc4[nH]cc(c34)C[C@H]21` [listing 3 of 3 here], the inhibition at 3000 µM in the assay on Claviceps [4] was 29%.
Regarding `CC1=C[C@@H]2c3cccc4[nH]cc(c34)C[C@H]2N(C)C1`, in the assay with Claviceps [1], the Activity is 90%.

Usually inhibition stands for the drop in the measured response relative to a control, in per cent.
